Assay results: US10597388B2, “Pyridazinone herbicides” (FMC CORPORATION, priority 2014, dated 2020)

Tests used:
Assay type in all cases: in vivo
[1] = system: kochia (Kochia scoparia); assay: Test C greenhouse herbicide test, postemergence
In short: (§1)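 Visual injury scores (0–100, where 100 means complete control) were assigned 13 to 15 d after postemergence application, by comparison with untreated plants. Treated seedlings stood 2 to 18 cm tall, at the 1- to 4-leaf stage.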

[2] = system: oat, wild (wild oat, Avena fatua); assay: Test C greenhouse herbicide test, postemergence
In short: as §1

[3] = system: morningglory (Ipomoea coccinea); assay: Test C greenhouse herbicide test, pre- and postemergence
In short: (§2)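 Preemergence: seeds sown in a loam soil–sand blend and sprayed with test chemicals in a non-phytotoxic solvent mixture containing surfactant. Postemergence: plants grown in peat-based medium and treated at 2 to 18 cm (1- to 4-leaf stage). After 13 to 15 d in a greenhouse, injury was visually rated 0–100 against controls.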

[4] = system: oilseed rape (Brassica napus); assay: as above
In short: as §2

[5] = system: johnsongrass (Sorghum halepense); assay: as above
In short: as §2

[6] = system: lambsquarters (Chenopodium album); assay: as above
In short: as §2

[7] = system: foxtail, giant (giant foxtail, Setaria faberii); assay: as above
In short: as §2

[8] = system: pigweed (Amaranthus retroflexus); assay: as above
In short: as §2

[9] = system: nutsedge, yellow (yellow nutsedge, Cyperus esculentus); assay: as above
In short: as §2

[10] = system: velvetleaf (Abutilon theophrasti); assay: as above
In short: as §2

[11] = system: corn (Zea mays); assay: as above
In short: as §2

[12] = system: waterhemp (common waterhemp, Amaranthus rudis); assay: as above
In short: as §2

[13] = system: barnyardgrass (Echinochloa crus-galli); assay: as above
In short: as §2

[14] = system: blackgrass (Alopecurus myosuroides); assay: as above
In short: as §2

[15] = system: crabgrass, large (large crabgrass, Digitaria sanguinalis); assay: as above
In short: as §2

[16] = system: wheat (winter wheat, Triticum aestivum); assay: as above
In short: as §2

[17] = Postemergence, 31 g ai/ha, scale 0 to 100 (0 no effect, 100 complete control)
[18] = Postemergence, 62 g ai/ha, 0 to 100 scale (0 no effect, 100 complete control)
[19] = Postemergence, 250 g ai/ha, scale 0 to 100, 0 no effect, 100 complete control, 13 to 15 d
[20] = postemergence, 125 g ai/ha, scale 0 to 100, 0 no effect, 100 complete control
[21] = Preemergence, 31 g ai/ha, scale 0 to 100, 0 is no effect, 100 is complete control
[22] = Preemergence, 62 g ai/ha, scale 0 to 100, 0 is no effect, 100 is complete control
[23] = Preemergence, 125 g ai/ha, scale 0 to 100, 0 is no effect, 100 is complete control
[24] = Preemergence, 250 g ai/ha, scale 0 to 100 (0 no effect, 100 complete control)

Cc1cc(C)c2ccccc2c1-c1c(OS(C)(=O)=O)c(C)nn(C)c1=O [Compound 154]
Plant response rating, Kochia [1, 17]: 50
Kochia plant response rating [1, 18]: 50
Plant response rating, Kochia [1, 19]: 80
Kochia plant response rating [1, 20]: 60
Plant response rating, Oat, Wild [2, 17]: 55
Oat, Wild plant response rating [2, 18]: 80
Plant response rating, Oat, Wild [2, 19]: 90
Oat, Wild plant response rating [2, 20]: 90
Plant response rating, Morningglory [3, 17]: 95
Morningglory plant response rating [3, 18]: 98
Plant response rating, Morningglory [3, 19]: 100
Plant response rating, Morningglory [3, 21]: 45
Plant response rating, Morningglory [3, 22]: 85
Plant response rating, Morningglory [3, 23]: 85
Morningglory plant response rating [3, 24]: 90
Morningglory plant response rating [3, 20]: 98
Plant response rating, Oilseed Rape [4, 17]: 75
Oilseed Rape plant response rating [4, 18]: 90
Plant response rating, Oilseed Rape [4, 19]: 95
Plant response rating, Oilseed Rape [4, 21]: 80
Plant response rating, Oilseed Rape [4, 22]: 85
Plant response rating, Oilseed Rape [4, 23]: 98
Oilseed Rape plant response rating [4, 24]: 98
Oilseed Rape plant response rating [4, 20]: 98
Plant response rating, Johnsongrass [5, 17]: 5
Johnsongrass plant response rating [5, 18]: 5
Plant response rating, Johnsongrass [5, 19]: 20
Plant response rating, Johnsongrass [5, 21]: 10
Plant response rating, Johnsongrass [5, 22]: 45
Plant response rating, Johnsongrass [5, 23]: 50
Johnsongrass plant response rating [5, 24]: 75
Johnsongrass plant response rating [5, 20]: 20
Plant response rating, Lambsquarters [6, 17]: 90
Lambsquarters plant response rating [6, 18]: 85
Plant response rating, Lambsquarters [6, 19]: 95
Plant response rating, Lambsquarters [6, 21]: 15
Plant response rating, Lambsquarters [6, 22]: 60
Plant response rating, Lambsquarters [6, 23]: 85
Lambsquarters plant response rating [6, 24]: 95
Lambsquarters plant response rating [6, 20]: 90
Plant response rating, Foxtail, Giant [7, 17]: 85
Foxtail, Giant plant response rating [7, 18]: 90
Plant response rating, Foxtail, Giant [7, 19]: 95
Plant response rating, Foxtail, Giant [7, 21]: 85
Plant response rating, Foxtail, Giant [7, 22]: 95
Plant response rating, Foxtail, Giant [7, 23]: 100
Foxtail, Giant plant response rating [7, 24]: 100
Foxtail, Giant plant response rating [7, 20]: 95
Plant response rating, Pigweed [8, 17]: 65
Pigweed plant response rating [8, 18]: 85
Plant response rating, Pigweed [8, 19]: 85
Plant response rating, Pigweed [8, 21]: 55
Plant response rating, Pigweed [8, 22]: 95
Plant response rating, Pigweed [8, 23]: 100
Pigweed plant response rating [8, 24]: 100
Pigweed plant response rating [8, 20]: 90
Plant response rating, Nutsedge, Yellow [9, 17]: 70
Nutsedge, Yellow plant response rating [9, 18]: 60
Plant response rating, Nutsedge, Yellow [9, 19]: 80
Plant response rating, Nutsedge, Yellow [9, 21]: 0
Plant response rating, Nutsedge, Yellow [9, 22]: 20
Plant response rating, Nutsedge, Yellow [9, 23]: 70
Nutsedge, Yellow plant response rating [9, 24]: 85
Nutsedge, Yellow plant response rating [9, 20]: 85
Plant response rating, Velvetleaf [10, 17]: 70
Velvetleaf plant response rating [10, 18]: 85
Plant response rating, Velvetleaf [10, 19]: 90
Plant response rating, Velvetleaf [10, 21]: 40
Plant response rating, Velvetleaf [10, 22]: 60
Plant response rating, Velvetleaf [10, 23]: 85
Velvetleaf plant response rating [10, 24]: 85
Velvetleaf plant response rating [10, 20]: 85
Plant response rating, Corn [11, 17]: 15
Corn plant response rating [11, 18]: 5
Plant response rating, Corn [11, 19]: 5
Plant response rating, Corn [11, 21]: 5
Plant response rating, Corn [11, 22]: 5
Plant response rating, Corn [11, 23]: 5
Corn plant response rating [11, 24]: 5
Corn plant response rating [11, 20]: 5
Plant response rating, Waterhemp [12, 17]: 75
Waterhemp plant response rating [12, 18]: 80
Plant response rating, Waterhemp [12, 19]: 70
Plant response rating, Waterhemp [12, 21]: 30
Plant response rating, Waterhemp [12, 22]: 85
Plant response rating, Waterhemp [12, 23]: 95
Waterhemp plant response rating [12, 24]: 100
Waterhemp plant response rating [12, 20]: 85
Plant response rating, Barnyardgrass [13, 17]: 70
Barnyardgrass plant response rating [13, 18]: 85
Plant response rating, Barnyardgrass ([13]; Postemergence, 125 g ai/ha, scale 0 to 100, 0 is no effect, 100 is complete control): 90
Plant response rating, Barnyardgrass [13, 19]: 95
Plant response rating, Barnyardgrass [13, 21]: 65
Plant response rating, Barnyardgrass [13, 22]: 80
Plant response rating, Barnyardgrass [13, 23]: 90
Barnyardgrass plant response rating [13, 24]: 95
Plant response rating, Blackgrass [14, 17]: 60
Blackgrass plant response rating [14, 18]: 65
Plant response rating, Blackgrass [14, 19]: 85
Plant response rating, Blackgrass [14, 21]: 5
Plant response rating, Blackgrass [14, 22]: 50
Plant response rating, Blackgrass [14, 23]: 85
Blackgrass plant response rating [14, 24]: 90
Blackgrass plant response rating [14, 20]: 60
Plant response rating, Crabgrass, Large [15, 17]: 65
Crabgrass, Large plant response rating [15, 18]: 70
Plant response rating, Crabgrass, Large [15, 19]: 75
Plant response rating, Crabgrass, Large [15, 21]: 70
Plant response rating, Crabgrass, Large [15, 22]: 85
Plant response rating, Crabgrass, Large [15, 23]: 90
Crabgrass, Large plant response rating [15, 24]: 100
Crabgrass, Large plant response rating [15, 20]: 70
Plant response rating, Wheat [16, 17]: 0
Wheat plant response rating [16, 18]: 5
Plant response rating, Wheat [16, 19]: 5
Plant response rating, Wheat [16, 21]: 0
Plant response rating, Wheat [16, 22]: 0
Plant response rating, Wheat [16, 23]: 0
Wheat plant response rating [16, 24]: 30
Wheat plant response rating [16, 20]: 10

COC(=O)Oc1c(C)nn(C)c(=O)c1-c1c([N+](=O)[O-])ccc2ccccc12 [Compound 162]
Plant response rating, Kochia [1, 17]: 70
Kochia plant response rating [1, 18]: 80
Plant response rating, Kochia [1, 19]: 90
Kochia plant response rating [1, 20]: 90
Plant response rating, Oat, Wild [2, 17]: 50
Oat, Wild plant response rating [2, 18]: 60
Plant response rating, Oat, Wild [2, 19]: 70
Oat, Wild plant response rating [2, 20]: 70
Plant response rating, Morningglory [3, 17]: 60
Morningglory plant response rating [3, 18]: 85
Plant response rating, Morningglory [3, 19]: 90
Morningglory plant response rating [3, 20]: 85
Plant response rating, Oilseed Rape [4, 17]: 0
Oilseed Rape plant response rating [4, 18]: 0
Plant response rating, Oilseed Rape [4, 19]: 0
Oilseed Rape plant response rating [4, 20]: 0
Plant response rating, Johnsongrass [5, 17]: 5
Johnsongrass plant response rating [5, 18]: 5
Plant response rating, Johnsongrass [5, 19]: 10
Johnsongrass plant response rating [5, 20]: 5
Plant response rating, Lambsquarters [6, 17]: 85
Lambsquarters plant response rating [6, 18]: 95
Plant response rating, Lambsquarters [6, 19]: 95
Lambsquarters plant response rating [6, 20]: 90
Plant response rating, Foxtail, Giant [7, 17]: 5
Foxtail, Giant plant response rating [7, 18]: 15
Plant response rating, Foxtail, Giant [7, 19]: 40
Foxtail, Giant plant response rating [7, 20]: 15
Plant response rating, Pigweed [8, 17]: 75
Pigweed plant response rating [8, 18]: 80
Plant response rating, Pigweed [8, 19]: 90
Pigweed plant response rating [8, 20]: 85
Plant response rating, Nutsedge, Yellow [9, 17]: 20
Nutsedge, Yellow plant response rating [9, 18]: 25
Plant response rating, Nutsedge, Yellow [9, 19]: 30
Nutsedge, Yellow plant response rating [9, 20]: 30
Plant response rating, Velvetleaf [10, 17]: 5
Velvetleaf plant response rating [10, 18]: 15
Plant response rating, Velvetleaf [10, 19]: 70
Velvetleaf plant response rating [10, 20]: 30
Plant response rating, Corn [11, 17]: 0
Corn plant response rating [11, 18]: 0
Plant response rating, Corn [11, 19]: 0
Corn plant response rating [11, 20]: 0
Plant response rating, Waterhemp [12, 17]: 45
Waterhemp plant response rating [12, 18]: 65
Plant response rating, Waterhemp [12, 19]: 65
Waterhemp plant response rating [12, 20]: 70
Plant response rating, Barnyardgrass [13, 17]: 10
Barnyardgrass plant response rating [13, 18]: 20
Plant response rating, Barnyardgrass [13, 19]: 25
Barnyardgrass plant response rating [13, 20]: 25
Plant response rating, Blackgrass [14, 17]: 10
Blackgrass plant response rating [14, 18]: 15
Plant response rating, Blackgrass [14, 19]: 40
Blackgrass plant response rating [14, 20]: 30
Plant response rating, Crabgrass, Large [15, 17]: 0
Crabgrass, Large plant response rating [15, 18]: 5
Plant response rating, Crabgrass, Large [15, 19]: 10
Crabgrass, Large plant response rating [15, 20]: 10
Plant response rating, Wheat [16, 17]: 0
Wheat plant response rating [16, 18]: 10
Plant response rating, Wheat [16, 19]: 10
Wheat plant response rating [16, 20]: 5
